Laboratory results as given in patent US12258327B2, “5-membered heteroaryl-containing aminopyridine compounds as EGFR inhibitors” (YUHAN CORPORATION, priority 2021, dated 2025).
Like-named read-outs stand apart in the source and are kept apart here.

Experiments:
EGFR del19/T790M/C797S = EGFR del19/T790M/C797S (Homo sapiens, UniProt P00533, C797S/DEL746-750/T790M); assay: Biochemical EGFR kinase assay (Lance Ultra TR-FRET), triple mutant del19/T790M/C797S
Procedure, shortened: (§1)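 Step 1: compound in kinase buffer, 0.003–10 μM. Step 2: kinase reaction 1 h at room temperature. Step 4: TR-FRET read at 615/665 nm; IC50 calculated.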

EGFR L858R/T790M/C797S = EGFR L858R/T790M/C797S (Homo sapiens, UniProt P00533, C797S/L858R/T790M); assay: Biochemical EGFR kinase assay (Lance Ultra TR-FRET), triple mutant L858R/T790M/C797S
EGFR L858R/T790M/C797S, sequence (P00533 25-1210 T790M/C797S/L858R): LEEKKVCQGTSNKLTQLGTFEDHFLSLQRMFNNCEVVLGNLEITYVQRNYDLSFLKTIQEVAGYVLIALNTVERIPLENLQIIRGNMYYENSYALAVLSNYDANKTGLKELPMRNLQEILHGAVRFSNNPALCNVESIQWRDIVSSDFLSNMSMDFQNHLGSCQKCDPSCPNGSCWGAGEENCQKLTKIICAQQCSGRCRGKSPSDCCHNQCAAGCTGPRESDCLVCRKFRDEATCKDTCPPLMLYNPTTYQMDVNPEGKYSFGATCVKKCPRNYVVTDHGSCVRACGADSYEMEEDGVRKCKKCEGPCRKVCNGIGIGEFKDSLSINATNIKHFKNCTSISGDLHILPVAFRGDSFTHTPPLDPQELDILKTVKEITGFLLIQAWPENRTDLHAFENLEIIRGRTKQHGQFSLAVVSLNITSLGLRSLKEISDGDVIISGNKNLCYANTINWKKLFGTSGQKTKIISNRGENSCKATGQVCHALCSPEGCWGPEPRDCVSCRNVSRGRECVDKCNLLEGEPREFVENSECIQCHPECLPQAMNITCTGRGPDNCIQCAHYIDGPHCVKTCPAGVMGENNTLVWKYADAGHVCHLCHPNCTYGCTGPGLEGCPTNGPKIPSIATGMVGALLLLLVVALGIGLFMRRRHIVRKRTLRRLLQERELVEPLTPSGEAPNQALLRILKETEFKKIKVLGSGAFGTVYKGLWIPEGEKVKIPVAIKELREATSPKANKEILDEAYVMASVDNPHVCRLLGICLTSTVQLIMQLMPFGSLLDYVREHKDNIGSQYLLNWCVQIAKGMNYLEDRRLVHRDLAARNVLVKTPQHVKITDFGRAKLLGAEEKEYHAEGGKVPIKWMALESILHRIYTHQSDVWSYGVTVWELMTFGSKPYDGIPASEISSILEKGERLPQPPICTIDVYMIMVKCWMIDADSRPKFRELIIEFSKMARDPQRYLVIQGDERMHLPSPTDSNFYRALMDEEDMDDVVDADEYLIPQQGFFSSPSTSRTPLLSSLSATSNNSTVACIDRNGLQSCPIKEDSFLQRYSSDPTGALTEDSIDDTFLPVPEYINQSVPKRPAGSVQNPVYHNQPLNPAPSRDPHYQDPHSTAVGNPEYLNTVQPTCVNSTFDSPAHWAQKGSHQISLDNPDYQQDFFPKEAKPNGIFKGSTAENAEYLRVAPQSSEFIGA
Procedure, shortened: as §1

EGFR del19/C797S = EGFR del19/C797S (Homo sapiens, UniProt P00533, C797S/DEL746-750); assay: Biochemical EGFR kinase assay (Lance Ultra TR-FRET), double mutant del19/C797S
EGFR del19/C797S, sequence (P00533 with tags, fused parts or gaps DEL746-750/C797S): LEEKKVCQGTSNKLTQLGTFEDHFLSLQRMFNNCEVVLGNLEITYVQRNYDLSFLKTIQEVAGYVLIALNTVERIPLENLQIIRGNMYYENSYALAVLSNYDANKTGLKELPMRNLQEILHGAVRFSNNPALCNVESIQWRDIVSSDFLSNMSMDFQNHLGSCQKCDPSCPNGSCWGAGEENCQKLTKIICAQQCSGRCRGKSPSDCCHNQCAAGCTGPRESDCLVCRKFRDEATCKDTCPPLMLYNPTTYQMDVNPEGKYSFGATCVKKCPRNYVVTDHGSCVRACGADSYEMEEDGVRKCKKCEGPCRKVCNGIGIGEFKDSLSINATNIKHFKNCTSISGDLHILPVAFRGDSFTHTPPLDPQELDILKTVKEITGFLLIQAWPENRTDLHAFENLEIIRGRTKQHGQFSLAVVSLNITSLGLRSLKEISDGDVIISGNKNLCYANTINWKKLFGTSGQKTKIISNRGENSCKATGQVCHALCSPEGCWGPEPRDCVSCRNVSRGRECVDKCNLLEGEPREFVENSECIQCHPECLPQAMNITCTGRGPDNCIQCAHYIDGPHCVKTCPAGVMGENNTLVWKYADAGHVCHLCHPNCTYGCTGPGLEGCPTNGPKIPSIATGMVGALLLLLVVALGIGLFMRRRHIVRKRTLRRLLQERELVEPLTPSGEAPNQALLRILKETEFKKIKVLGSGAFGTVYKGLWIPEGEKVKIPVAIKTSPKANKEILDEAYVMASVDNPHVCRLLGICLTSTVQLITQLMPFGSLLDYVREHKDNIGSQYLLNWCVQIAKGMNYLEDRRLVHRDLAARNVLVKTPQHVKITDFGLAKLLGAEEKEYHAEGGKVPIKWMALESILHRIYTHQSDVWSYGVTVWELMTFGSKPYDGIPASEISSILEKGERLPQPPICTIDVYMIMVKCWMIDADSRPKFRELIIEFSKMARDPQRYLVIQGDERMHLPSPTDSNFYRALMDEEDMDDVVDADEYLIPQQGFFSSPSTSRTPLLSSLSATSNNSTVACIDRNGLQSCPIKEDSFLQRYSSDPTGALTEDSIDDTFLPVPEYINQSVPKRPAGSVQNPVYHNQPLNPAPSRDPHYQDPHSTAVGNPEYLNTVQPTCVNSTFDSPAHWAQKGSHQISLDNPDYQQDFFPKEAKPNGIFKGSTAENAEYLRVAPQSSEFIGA
Procedure, shortened: as §1

EGFR L858R/C797S = EGFR L858R/C797S (Homo sapiens, UniProt P00533, C797S/L858R); assay: Biochemical EGFR kinase assay (Lance Ultra TR-FRET), double mutant L858R/C797S
EGFR L858R/C797S, sequence (P00533 25-1210 C797S/L858R): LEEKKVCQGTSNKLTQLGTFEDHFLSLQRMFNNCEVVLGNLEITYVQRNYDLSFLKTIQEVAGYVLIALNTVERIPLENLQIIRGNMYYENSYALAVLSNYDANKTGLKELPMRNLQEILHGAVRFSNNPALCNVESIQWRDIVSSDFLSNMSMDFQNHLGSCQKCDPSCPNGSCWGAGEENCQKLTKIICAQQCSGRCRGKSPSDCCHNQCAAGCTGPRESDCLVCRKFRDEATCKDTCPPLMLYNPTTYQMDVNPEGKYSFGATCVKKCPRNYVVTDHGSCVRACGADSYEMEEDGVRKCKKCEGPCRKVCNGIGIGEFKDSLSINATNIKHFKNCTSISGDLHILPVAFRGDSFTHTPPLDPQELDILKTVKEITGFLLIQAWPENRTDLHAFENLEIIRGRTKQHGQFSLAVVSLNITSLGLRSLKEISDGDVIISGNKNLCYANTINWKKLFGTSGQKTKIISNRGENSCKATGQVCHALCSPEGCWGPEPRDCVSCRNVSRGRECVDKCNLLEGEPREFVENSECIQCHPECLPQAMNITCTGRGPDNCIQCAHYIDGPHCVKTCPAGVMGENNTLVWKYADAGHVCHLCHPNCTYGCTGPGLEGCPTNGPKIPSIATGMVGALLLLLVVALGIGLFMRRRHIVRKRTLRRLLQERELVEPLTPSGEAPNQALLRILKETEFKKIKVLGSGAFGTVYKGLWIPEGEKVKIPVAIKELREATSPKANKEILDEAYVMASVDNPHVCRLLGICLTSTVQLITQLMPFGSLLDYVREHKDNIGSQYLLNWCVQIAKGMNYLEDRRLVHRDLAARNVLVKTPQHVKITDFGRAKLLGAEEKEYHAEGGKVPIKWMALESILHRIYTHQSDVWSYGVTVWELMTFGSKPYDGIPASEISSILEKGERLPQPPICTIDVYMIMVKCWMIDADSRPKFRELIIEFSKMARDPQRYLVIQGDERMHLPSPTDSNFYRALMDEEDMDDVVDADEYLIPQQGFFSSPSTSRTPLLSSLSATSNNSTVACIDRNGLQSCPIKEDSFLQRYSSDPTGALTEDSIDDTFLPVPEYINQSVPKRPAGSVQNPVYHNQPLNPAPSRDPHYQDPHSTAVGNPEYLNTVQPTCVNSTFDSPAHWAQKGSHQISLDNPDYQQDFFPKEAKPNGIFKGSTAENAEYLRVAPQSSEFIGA
Procedure, shortened: as §1

EGFR wildtype (WT) = EGFR wildtype (WT) (Homo sapiens, UniProt P00533); assay: Biochemical EGFR kinase assay (Lance Ultra TR-FRET), wildtype
Procedure, shortened: as §1

[1] = Km ATP, read-out: IC50 del19/T790M/C797S (nM) Km ATP
[2] = Km ATP, read-out: IC50 L858R/T790M/C797S (nM) Km ATP
[3] = Km ATP, read-out: IC50 del19/C797S (nM) Km ATP
[4] = Km ATP, read-out: IC50 L858R/C797S (nM) Km ATP
[5] = Km ATP, read-out: IC50 WT (nM) Km ATP
[6] = Km ATP, read-out: IC50 del19/T790M/C797S, Km ATP
[7] = Km ATP, read-out: IC50 L858R/T790M/C797S, Km ATP
[8] = Km ATP, read-out: IC50 del19/C797S, Km ATP
[9] = Km ATP, read-out: IC50 L858R/C797S, Km ATP
[10] = Km ATP, read-out: IC50 WT, Km ATP
[11] = IC50 del19/T790M/C797S (nM) 100 μM ATP, 100 μM ATP
[12] = IC50 L858R/T790M/C797S (nM) 100 μM ATP, 100 μM ATP
[13] = IC50 del19/C797S (nM) 100 μM ATP, 100 μM ATP
[14] = IC50 L858R/C797S (nM) 100 μM ATP, 100 μM ATP
[15] = IC50 WT (nM) 100 μM ATP, 100 μM ATP

EGFR del19/T790M/C797S, sequence (P00533 with tags, fused parts or gaps DEL746-750/T790M/C797S): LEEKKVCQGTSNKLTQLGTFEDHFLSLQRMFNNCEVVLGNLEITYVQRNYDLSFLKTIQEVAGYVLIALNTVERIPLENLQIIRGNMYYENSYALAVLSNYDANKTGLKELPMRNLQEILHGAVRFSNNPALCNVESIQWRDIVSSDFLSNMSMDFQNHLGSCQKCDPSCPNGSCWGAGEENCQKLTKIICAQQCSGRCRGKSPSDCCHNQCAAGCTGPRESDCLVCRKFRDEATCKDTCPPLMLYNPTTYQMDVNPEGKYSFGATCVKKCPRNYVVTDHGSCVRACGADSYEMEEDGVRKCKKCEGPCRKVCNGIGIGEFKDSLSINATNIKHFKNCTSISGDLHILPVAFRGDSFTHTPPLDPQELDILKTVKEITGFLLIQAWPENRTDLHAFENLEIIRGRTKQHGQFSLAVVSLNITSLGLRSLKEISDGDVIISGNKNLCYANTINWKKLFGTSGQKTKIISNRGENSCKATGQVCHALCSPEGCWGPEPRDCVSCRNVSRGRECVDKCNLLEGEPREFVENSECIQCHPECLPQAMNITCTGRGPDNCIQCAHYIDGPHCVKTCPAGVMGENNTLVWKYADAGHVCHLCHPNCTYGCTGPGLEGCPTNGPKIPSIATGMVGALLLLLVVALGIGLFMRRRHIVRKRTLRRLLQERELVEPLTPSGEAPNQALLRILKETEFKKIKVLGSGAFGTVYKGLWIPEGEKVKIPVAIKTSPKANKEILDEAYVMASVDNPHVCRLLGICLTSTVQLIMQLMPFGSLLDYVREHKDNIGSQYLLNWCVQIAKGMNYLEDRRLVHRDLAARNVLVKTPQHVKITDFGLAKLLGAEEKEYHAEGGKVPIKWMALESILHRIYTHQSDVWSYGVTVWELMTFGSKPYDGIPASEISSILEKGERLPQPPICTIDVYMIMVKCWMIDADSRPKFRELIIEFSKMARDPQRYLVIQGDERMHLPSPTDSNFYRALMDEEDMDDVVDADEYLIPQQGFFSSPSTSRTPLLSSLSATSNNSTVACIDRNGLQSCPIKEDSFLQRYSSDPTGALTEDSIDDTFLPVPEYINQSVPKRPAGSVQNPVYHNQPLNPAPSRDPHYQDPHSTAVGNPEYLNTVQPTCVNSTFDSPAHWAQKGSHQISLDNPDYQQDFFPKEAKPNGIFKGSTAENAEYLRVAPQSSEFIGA

Row | SMILES | IC50 (EGFR del19/T790M/C797S; [1]) | IC50 (EGFR L858R/T790M/C797S; [2]) | IC50 (EGFR del19/C797S; [3]) | IC50 (EGFR L858R/C797S; [4]) | IC50 (EGFR wildtype (WT); [5]) | IC50 (EGFR del19/T790M/C797S; [6]) | IC50 (EGFR L858R/T790M/C797S; [7]) | IC50 (EGFR del19/C797S; [8]) | IC50 (EGFR L858R/C797S; [9]) | IC50 (EGFR wildtype (WT); [10]) | IC50 (EGFR del19/T790M/C797S; [11]) | IC50 (EGFR L858R/T790M/C797S; [12]) | IC50 (EGFR del19/C797S; [13]) | IC50 (EGFR L858R/C797S; [14]) | IC50 (EGFR wildtype (WT); [15])
1 | C[C@]1(O)CC[C@@H](Nc2cc(Nc3ccnc(-c4cnn(S(=O)(=O)C5CC5)c4)n3)ncc2-n2ccc(C(F)(F)F)n2)CC1 [Example 167, (1s,4s)-4-((2-((2-(1-(Cyclopropylsulfonyl)-1H-pyrazol-4-yl)pyrimidin-4-yl)amino)-5-(3-(trifluoromethyl)-1H-pyrazol-1-yl)pyridin-4-yl)amino)-1-methylcyclohexan-1-ol] | 0.6 nM | 0.4 nM | 58.9 nM | 47.7 nM | 129 nM | – | – | – | – | – | – | – | – | – | –
2 | C[C@]1(O)CC[C@@H](Nc2nc(Nc3ccnc(-c4cnn(S(=O)(=O)C5CC5)c4)c3)ncc2-c2ccn(CC(F)F)n2)CC1 [Example 357, (1s,4s)-4-((2-((2-(1-(Cyclopropylsulfonyl)-1H-pyrazol-4-yl)pyridin-4-yl)amino)-5-(1-(2,2-difluoroethyl)-1H-pyrazol-3-yl)pyrimidin-4-yl)amino)-1-methylcyclohexan-1-ol] | – | – | – | – | – | 0.2 nM | 0.4 nM | 5.2 nM | 8.4 nM | 46.2 nM | – | – | – | – | –
3 | O=S(=O)(C1CC1)n1cc(-c2ncc(F)c(Nc3cc(N[C@H]4CC[C@@H](CN5CCC5)CC4)c(-c4ccn(C(F)F)n4)cn3)n2)cn1 [Example 327, N^4-((1s,4s)-4-(Azetidin-1-ylmethyl)cyclohexyl)-N^2-(2-(1-(cyclopropylsulfonyl)-1H-pyrazol-4-yl)-5-fluoropyrimidin-4-yl)-5-(1-(difluoromethyl)-1H-pyrazol-3-yl)pyridine-2,4-diamine] | 0.4 nM | 0.2 nM | 1.7 nM | 2.8 nM | 6.5 nM | – | – | – | – | – | – | – | – | – | –
4 | Cc1nn(CC(F)F)c(C)c1-c1nccc(Nc2cc(N[C@H]3CC[C@@](C)(O)CC3)c(-c3ccn(C(F)F)n3)cn2)n1 [Example 321, (1s,4s)-4-((2-((2-(1-(2,2-Difluoroethyl)-3,5-dimethyl-1H-pyrazol-4-yl)pyrimidin-4-yl)amino)-5-(1-(difluoromethyl)-1H-pyrazol-3-yl)pyridin-4-yl)amino)-1-methylcyclohexan-1-ol] | 2.8 nM | 2.3 nM | 20.2 nM | 10.4 nM | 74.8 nM | – | – | – | – | – | – | – | – | – | –
5 | CN(C)S(=O)(=O)n1cc(-c2nccc(Nc3cc(N[C@H]4CC[C@@](C)(O)CC4)c(-c4ccn(C(F)F)n4)cn3)n2)cn1 [Example 317, 4-(4-((5-(1-(Difluoromethyl)-1H-pyrazol-3-yl)-4-(((1s,4s)-4-hydroxy-4-methylcyclohexyl)amino)pyridin-2-yl)amino)pyrimidin-2-yl)-N,N-dimethyl-1H-pyrazole-1-sulfonamide] | 0.5 nM | 0.1 nM | 5.5 nM | 2.2 nM | 12.1 nM | – | – | – | – | – | 0.3 nM | 0.2 nM | 16.8 nM | 53.6 nM | > 10000 nM
6 | O=S(=O)(C1CC1)n1cc(-c2nccc(Nc3cc(N[C@H]4CC[C@@H](CO)CC4)c(-c4cc5n(n4)CCCC5)cn3)n2)cn1 [Example 60, ((1s,4s)-4-((2-((2-(1-(Cyclopropylsulfonyl)-1H-pyrazol-4-yl)pyrimidin-4-yl)amino)-5-(4,5,6,7-tetrahydropyrazolo[1,5-a]pyridin-2-yl)pyridin-4-yl)amino)cyclohexyl)methanol] | 1.1 nM | 0.5 nM | 1.1 nM | 1.1 nM | 2.2 nM | – | – | – | – | – | 4.3 nM | – | 2.5 nM | 2.4 nM | 326 nM
7 | O=S(=O)(C1CC1)n1cc(-c2nccc(Nc3cc(NC[C@H]4C[C@@H](O)C4)c(-c4ccn(C(F)F)n4)cn3)n2)cn1 [Example 35, (1s,3s)-3-(((2-((2-(1-(Cyclopropylsulfonyl)-1H-pyrazol-4-yl)pyrimidin-4-yl)amino)-5-(1-(difluoromethyl)-1H-pyrazol-3-yl)pyridin-4-yl)amino)methyl)cyclobutan-1-ol] | 0.4 nM | 0.2 nM | 5.2 nM | 6.5 nM | 32.9 nM | – | – | – | – | – | 0.3 nM | 0.9 nM | 5.4 nM | 57.6 nM | > 10000 nM
8 | O=S(=O)(C1CC1)n1cc(-c2cc(Nc3ncc(-c4ccn(CC(F)(F)F)n4)c(N[C@H]4CC[C@@H](F)CC4)n3)ccn2)cn1 [Example 366, N^2-(2-(1-(Cyclopropylsulfonyl)-1H-pyrazol-4-yl)pyridin-4-yl)-N^4-((1s,4s)-4-fluorocyclohexyl)-5-(1-(2,2,2-trifluoroethyl)-1H-pyrazol-3-yl)pyrimidine-2,4-diamine] | – | – | – | – | – | 8.5 nM | 3.1 nM | 249 nM | 127 nM | 3320 nM | – | – | – | – | –
9 | C[C@]1(O)CC[C@@H](Nc2cc(Nc3ccnc(-c4cnn(CC(F)F)c4)n3)ncc2-c2ccn(C(F)F)n2)CC1 [Example 143, (1s,4s)-4-((2-((2-(1-(2,2-Difluoroethyl)-1H-pyrazol-4-yl)pyrimidin-4-yl)amino)-5-(1-(difluoromethyl)-1H-pyrazol-3-yl)pyridin-4-yl)amino)-1-methylcyclohexan-1-ol] | 0.1 nM | 0.1 nM | 2.9 nM | 0.9 nM | 62.7 nM | – | – | – | – | – | 0.1 nM | 0.2 nM | 2.7 nM | 11.6 nM | > 10000 nM
10 | CC(C)(O)Cn1cc(-c2nccc(Nc3cc(N[C@H]4CC[C@@](C)(O)CC4)c(-c4ccn(C(F)F)n4)cn3)n2)cn1 [Example 142, (1s,4s)-4-((5-(1-(Difluoromethyl)-1H-pyrazol-3-yl)-2-((2-(1-(2-hydroxy-2-methylpropyl)-1H-pyrazol-4-yl)pyrimidin-4-yl)amino)pyridin-4-yl)amino)-1-methylcyclohexan-1-ol] | – | – | – | – | 486 nM | – | – | – | – | – | 17.6 nM | 33.8 nM | 114 nM | 37.5 nM | > 10000 nM
11 | CN(C)C(=O)[C@H]1CC[C@@H](Nc2cc(Nc3ccnc(-c4cnn(S(=O)(=O)C5CC5)c4)n3)ncc2-c2ccn(C(F)F)n2)CC1 [Example 201, (1s,4s)-4-((2-((2-(1-(Cyclopropylsulfonyl)-1H-pyrazol-4-yl)pyrimidin-4-yl)amino)-5-(1-(difluoromethyl)-1H-pyrazol-3-yl)pyridin-4-yl)amino)-N,N-dimethylcyclohexane-1-carboxamide] | 0.8 nM | 0.3 nM | 1.1 nM | 0.7 nM | – | – | – | – | – | – | 0.5 nM | 0.5 nM | 2.1 nM | 2.9 nM | > 10000 nM
12 | Cn1ccc(-c2cnc(Nc3ccnc(-c4cnn(S(=O)(=O)C5CC5)c4)n3)cc2NC[C@H]2CC[C@H](NCC(F)F)CC2)n1 [Example 129, N^2-(2-(1-(Cyclopropylsulfonyl)-1H-pyrazol-4-yl)pyrimidin-4-yl)-N^4-(((1r,4r)-4-((2,2-difluoroethyl)amino)cyclohexyl)methyl)-5-(1-methyl-1H-pyrazol-3-yl)pyridine-2,4-diamine] | – | – | – | – | – | – | – | – | – | – | 0.7 nM | 0.7 nM | 2 nM | 14.3 nM | > 10000 nM
